Patent US12435044B2, “Pyridazinone herbicides and pyridazinone intermediates used to prepare a herbicide” (FMC Corporation, priority 2018, dated 2025)

How the values were obtained:
Type in all cases: in vivo
[1] = test system: waterhemp_RES2, (ALS & HPPD resistant common waterhemp, Amaranthus rudis); test: Test E postemergence greenhouse test
From the text: (§1) Seeds of plant species selected from corn (Zea mays), soybean (Glycine max), velvetleaf (Abutilon theophrasti), lambsquarters (Chenopodium album), poinsettia, wild (Euphorbia heterophylla), pigweed, palmer (Amaranthus palmeri), waterhemp (common waterhemp, Amaranthus rudis), surinam grass (Brachiaria decumbens), crabgrass, large (Digitaria sanguinalis), crabgrass, Brazil (Digitaria horizontalis), panicum, fall (Panicum dichotomiflorum), foxtail, giant (Setaria faberii), foxtail, green (Setaria viridis), goosegrass (Eleusine indica), johnsongrass (Sorghum halepense), ragweed (common ragweed, Ambrosia elatior), barnyardgrass (Echinochloa crus-galli), sandbur (southern sandbur, Cenchrus echinatus), arrowleaf sida (Sida rhombifolia), ryegrass, Italian (Lolium multiflorum), dayflower, VA (Virginia (VA) dayflower, Commelina virginica), field bindweed (Convolvulus arvensis), morningglory (Ipomoea coccinea), horseweed (Conyza canadensis), kochia (Kochia scoparia), nutsedge, yellow (Cyperus esculentus) and hairy beggarticks (Bidenspilosa), were planted into a silt loam soil and treated preemergence with test chemicals formulated in a non-phytotoxic solvent mixture which included a surfactant.
(§2) At the same time, plants selected from these crop and weed species and also waterhemp_RES1, (ALS & Triazine resistant common waterhemp, Amaranthus rudis), and waterhemp_RES2, (ALS & HPPD resistant common waterhemp, Amaranthus rudis) were planted in pots containing Redi-Earth® planting medium (Scotts Company, 14111 Scottslawn Road, Marysville, Ohio 43041) comprising spaghnum peat moss, vermiculite, wetting agent and starter nutrients were treated with postemergence applications of test chemicals formulated in the same manner. Plants ranged in height from 2 to 18 cm for postemergence treatments (1- to 4-leaf stage). Treated plants and controls were maintained in a greenhouse for 14 to 21 d, after which time all species were compared to controls and visually evaluated. Plant response ratings, summarized in Table E, are based on a scale of 0 to 100 where 0 is no effect and 100 is complete control. A dash (-) response means no test result.

[2] = test system: waterhemp_RES1, (ALS & Triazine resistant common waterhemp, Amaranthus rudis); test: Test E postemergence greenhouse test
From the text: as §1, §2

[3] = test system: giant foxtail (SETFA; Setaria faberi); test: Test H postemergence, mixtures of Cpd. No. 20 with atrazine or glyphosate
From the text: (§3) This test evaluated the effect of mixtures of Cpd. No. 20 with atrazine or glyphosate on several plant species. Seeds of plant species selected from corn (ZEAMD; Zea mays, cv. ‘Pioneer 1184’), soybean (GLXMA; Glycine max, cv. Pioneer 35T58), giant foxtail (SETFA; Setaria faberi), Surinamgrass (BRADC; Brachiaria decumbens), fall panicum (PANDI; Panicum dichotomiflorum), velvetleaf (ABUTH; Abutilon threophrasti), mare's tail (ERICA; Conyza canadensis), barnyardgrass (ECHCG; Echinochloa crus-galli), large crabgrass (DIGSA; Digitaria sanguinalis), palmer amaranth (AMAPA; Amaranthus palmeri), common waterhemp (AMATU; Amaranthus rudis), E. black nightshade (SOLPT; Solanum ptycanthum), and common ragweed (AMBEL; Ambrosia artemisiifolia) were planted in pots containing Redi-Earth® planting medium (Scotts Company, 14111 Scottslawn Road, Marysville, Ohio 43041) comprising spaghnum peat moss, vermiculite, wetting agent and starter nutrients and treated postemergence using test chemicals formulated in a non-phytotoxic solvent mixture which included a surfactant. Plants ranged in height from 2 to 10 cm and were in the one- to two-leaf stage for the postemergence treatment. Treated plants and untreated controls were maintained in a greenhouse for approximately 14 d, after which time all treated plants were compared to untreated controls and visually evaluated for injury. Plant response ratings, summarized in Tables H1 & H2, are based on a 0 to 100 scale where 0 is no effect and 100 is complete control. A dash (-) response means no test result. Test results are presented as a mean of 4 reps.

[4] = test system: mare's tail (ERICA; Conyza canadensis); test: as above
From the text: as §3

[5] = test system: large crabgrass (DIGSA; Digitaria sanguinalis); test: as above
From the text: as §3

[6] = test system: soybean (GLXMA; Glycine max, cv. Pioneer 35T58); test: as above
From the text: as §3

[7] = test system: E. black nightshade (SOLPT; Solanum ptycanthum); test: as above
From the text: as §3

[8] = test system: Surinamgrass (BRADC; Brachiaria decumbens); test: as above
From the text: as §3

[9] = test system: common ragweed (AMBEL; Ambrosia artemisiifolia); test: as above
From the text: as §3

[10] = test system: common waterhemp (AMATU; Amaranthus rudis); test: as above
From the text: as §3

[11] = test system: corn (ZEAMD; Zea mays, cv. ‘Pioneer 1184’); test: as above
From the text: as §3

[12] = test system: fall panicum (PANDI; Panicum dichotomiflorum); test: as above
From the text: as §3

[13] = test system: velvetleaf (ABUTH; Abutilon threophrasti); test: as above
From the text: as §3

[14] = test system: barnyardgrass (ECHCG; Echinochloa crus-galli); test: as above
From the text: as §3

[15] = test system: palmer amaranth (AMAPA; Amaranthus palmeri); test: as above
From the text: as §3

Q: With `Cc1ccc2ccc(C)c(-c3c(O)c(Cl)nn(C)c3=O)c2c1` [Cpd. No. 20, 6-chloro-4-(2,7-dimethyl-1-naphthalenyl)-5-hydroxy-2-methyl-3(2H)-pyridazinone] as the compound, how does the “Plant response rating, Waterhemp_RES2” value ([1]; 16 g ai/ha) read?
A: The value was 15.

Q: And the “Plant response rating, Waterhemp_RES2” value ([1]; 31 g ai/ha)?
A: Its value is 40.

Q: What about the “Plant response rating, Waterhemp_RES2” value ([1]; 62 g ai/ha) of the same compound?
A: Its value is 60.

Q: And the “Plant response rating, Waterhemp_RES2” value ([1]; 125 g ai/ha)?
A: Its value is 70.

Q: And the “Plant response rating, Waterhemp_RES1” value ([2]; 16 g ai/ha)?
A: The value was 75.

Q: And the “Plant response rating, Waterhemp_RES1” value ([2]; 31 g ai/ha)?
A: Its value is 90.

Q: What about the “Plant response rating, Waterhemp_RES1” value ([2]; 62 g ai/ha) of the same compound?
A: The value was 80.

Q: And the “Plant response rating, Waterhemp_RES1” value ([2]; 125 g ai/ha)?
A: Its value is 95.

Q: What about the “Observed result (plant response rating), SETFA” value (“Observed result … SETFA” below) ([3]; applied alone at 31 g a.i./ha) of the same compound?
A: Its value is 71.

Q: And the “Observed result … SETFA” value ([3]; applied alone at 62 g a.i./ha)?
A: Its value is 79.

Q: And the “Observed result … SETFA” value ([3]; applied alone at 125 g a.i./ha)?
A: The value was 80.

Q: And the “Observed result (plant response rating), ERICA” value (“Observed result … ERICA” for short) ([4]; applied alone at 31 g a.i./ha)?
A: Its value is 85.

Q: What about the “Observed result … ERICA” value ([4]; applied alone at 62 g a.i./ha) of the same compound?
A: Its value is 85.

Q: And the “Observed result … ERICA” value ([4]; applied alone at 125 g a.i./ha)?
A: Its value is 88.

Q: What about the “Observed result (plant response rating), DIGSA” value (from here on “Observed result … DIGSA”) ([5]; applied alone at 31 g a.i./ha) of the same compound?
A: The value was 34.

Q: What about the “Observed result … DIGSA” value ([5]; applied alone at 62 g a.i./ha) of the same compound?
A: The value was 29.

Q: What about the “Observed result … DIGSA” value ([5]; applied alone at 125 g a.i./ha) of the same compound?
A: The value was 36.

Q: What about the “Observed result (plant response rating), GLXMA” value (from here on “Observed result … GLXMA”) ([6]; applied alone at 31 g a.i./ha) of the same compound?
A: Its value is 30.

Q: And the “Observed result … GLXMA” value ([6]; applied alone at 62 g a.i./ha)?
A: The value was 21.

Q: And the “Observed result … GLXMA” value ([6]; applied alone at 125 g a.i./ha)?
A: Its value is 18.

Q: What about the “Observed result (plant response rating), SOLPT” value (from here on “Observed result … SOLPT”) ([7]; applied alone at 31 g a.i./ha) of the same compound?
A: Its value is 86.

Q: What about the “Observed result … SOLPT” value ([7]; applied alone at 62 g a.i./ha) of the same compound?
A: Its value is 93.

Q: And the “Observed result … SOLPT” value ([7]; applied alone at 125 g a.i./ha)?
A: The value was 95.

Q: And the “Observed result (plant response rating), BRADC” value (from here on “Observed result … BRADC”) ([8]; applied alone at 31 g a.i./ha)?
A: Its value is 73.

Q: What about the “Observed result … BRADC” value ([8]; applied alone at 62 g a.i./ha) of the same compound?
A: The value was 84.

Q: What about the “Observed result … BRADC” value ([8]; applied alone at 125 g a.i./ha) of the same compound?
A: The value was 93.

Q: What about the “Observed result (plant response rating), AMBEL” value (from here on “Observed result … AMBEL”) ([9]; applied alone at 31 g a.i./ha) of the same compound?
A: Its value is 89.

Q: And the “Observed result … AMBEL” value ([9]; applied alone at 62 g a.i./ha)?
A: The value was 94.

Q: What about the “Observed result … AMBEL” value ([9]; applied alone at 125 g a.i./ha) of the same compound?
A: The value was 98.

Q: What about the “Observed result (plant response rating), AMATU” value (from here on “Observed result … AMATU”) ([10]; applied alone at 31 g a.i./ha) of the same compound?
A: The value was 70.

Q: What about the “Observed result … AMATU” value ([10]; applied alone at 62 g a.i./ha) of the same compound?
A: The value was 80.

Q: And the “Observed result … AMATU” value ([10]; applied alone at 125 g a.i./ha)?
A: The value was 80.

Q: And the “Observed result (plant response rating), ZEAMD” value (from here on “Observed result … ZEAMD”) ([11]; applied alone at 31 g a.i./ha)?
A: Its value is 0.

Q: And the “Observed result … ZEAMD” value ([11]; applied alone at 62 g a.i./ha)?
A: The value was 0.

Q: And the “Observed result … ZEAMD” value ([11]; applied alone at 125 g a.i./ha)?
A: Its value is 0.

Q: What about the “Observed result (plant response rating), PANDI” value (from here on “Observed result … PANDI”) ([12]; applied alone at 31 g a.i./ha) of the same compound?
A: Its value is 73.

Q: What about the “Observed result … PANDI” value ([12]; applied alone at 62 g a.i./ha) of the same compound?
A: Its value is 84.

Q: What about the “Observed result … PANDI” value ([12]; applied alone at 125 g a.i./ha) of the same compound?
A: Its value is 89.

Q: And the “Observed result (plant response rating), ABUTH” value (from here on “Observed result … ABUTH”) ([13]; applied alone at 31 g a.i./ha)?
A: Its value is 76.

Q: What about the “Observed result … ABUTH” value ([13]; applied alone at 62 g a.i./ha) of the same compound?
A: Its value is 89.

Q: And the “Observed result … ABUTH” value ([13]; applied alone at 125 g a.i./ha)?
A: Its value is 94.

Q: What about the “Observed result (plant response rating), ECHCG” value (from here on “Observed result … ECHCG”) ([14]; applied alone at 31 g a.i./ha) of the same compound?
A: Its value is 100.

Q: What about the “Observed result … ECHCG” value ([14]; applied alone at 62 g a.i./ha) of the same compound?
A: The value was 100.

Q: What about the “Observed result … ECHCG” value ([14]; applied alone at 125 g a.i./ha) of the same compound?
A: Its value is 100.

Q: And the “Observed result (plant response rating), AMAPA” value (from here on “Observed result … AMAPA”) ([15]; applied alone at 31 g a.i./ha)?
A: Its value is 10.

Q: And the “Observed result … AMAPA” value ([15]; applied alone at 62 g a.i./ha)?
A: The value was 36.

Q: And the “Observed result … AMAPA” value ([15]; applied alone at 125 g a.i./ha)?
A: Its value is 54.
